From PubChem BioAssay (NCI)
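Briefly, cells in 96-well plates were exposed to five compound concentrations for 48 h, and endpoints were estimated by linear interpolation. At the TGI there is no net growth.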

Experiments:
Assay in all cases: NCI-60 cell line screen, 48 h
ACHN renal = system: ACHN renal
DMS 114 small cell lung = system: DMS 114 small cell lung
OVCAR-3 ovarian = system: OVCAR-3 ovarian
SF-539 CNS = system: SF-539 CNS
A549 NSCLC = system: A549 NSCLC
SK-MEL-2 melanoma = system: SK-MEL-2 melanoma
SF-295 CNS = system: SF-295 CNS
OVCAR-4 ovarian = system: OVCAR-4 ovarian
TK-10 renal = system: TK-10 renal
KM12 colon = system: KM12 colon
CCRF-CEM leukemia = system: CCRF-CEM leukemia
DMS 273 small cell lung = system: DMS 273 small cell lung
KM20L2 colon = system: KM20L2 colon
SNB-75 CNS = system: SNB-75 CNS
UACC-257 melanoma = system: UACC-257 melanoma
SK-MEL-28 melanoma = system: SK-MEL-28 melanoma
HCT-15 colon = system: HCT-15 colon
OVCAR-8 ovarian = system: OVCAR-8 ovarian
A498 renal = system: A498 renal
MALME-3M melanoma = system: MALME-3M melanoma
SNB-19 CNS = system: SNB-19 CNS
SR leukemia = system: SR leukemia
UO-31 renal = system: UO-31 renal
IGROV1 ovarian = system: IGROV1 ovarian
CAKI-1 renal = system: CAKI-1 renal
MOLT-4 leukemia = system: MOLT-4 leukemia
SK-MEL-5 melanoma = system: SK-MEL-5 melanoma
M14 melanoma = system: M14 melanoma
NCI-H522 lung = system: NCI-H522 lung
HCT-116 colon = system: HCT-116 colon
LOX IMVI melanoma = system: LOX IMVI melanoma
NCI-H460 lung = system: NCI-H460 lung
SN12C renal = system: SN12C renal
XF 498 CNS = system: XF 498 CNS
LXFL 529 NSCLC = system: LXFL 529 NSCLC
DLD-1 colon = system: DLD-1 colon
EKVX NSCLC = system: EKVX NSCLC
UACC-62 melanoma = system: UACC-62 melanoma
SNB-78 CNS = system: SNB-78 CNS
SW-620 colon = system: SW-620 colon
NCI-H226 lung = system: NCI-H226 lung
OVCAR-5 ovarian = system: OVCAR-5 ovarian
SK-OV-3 ovarian = system: SK-OV-3 ovarian
HOP-92 NSCLC = system: HOP-92 NSCLC
786-0 renal = system: 786-0 renal
COLO 205 colon = system: COLO 205 colon
NCI-H23 lung = system: NCI-H23 lung
K-562 leukemia = system: K-562 leukemia
U251 CNS = system: U251 CNS
SF-268 CNS = system: SF-268 CNS
MCF7 breast = system: MCF7 breast
HCC-2998 colon = system: HCC-2998 colon
NCI/ADR-RES ovarian = system: NCI/ADR-RES ovarian
MDA-MB-231 breast = system: MDA-MB-231 breast
PC-3 prostate = system: PC-3 prostate
RPMI-8226 leukemia = system: RPMI-8226 leukemia
MDA-MB-435 = system: MDA-MB-435
HT29 colon = system: HT29 colon
HL-60(TB) leukemia = system: HL-60(TB) leukemia
DU-145 prostate = system: DU-145 prostate
BT-549 breast = system: BT-549 breast
RXF 393 renal = system: RXF 393 renal
HS 578T breast = system: HS 578T breast
MDA-N = system: MDA-N
T-47D breast = system: T-47D breast
M19-MEL melanoma = system: M19-MEL melanoma

SMILES: CCOC(=O)C1Cc2[nH]c3ccccc3c2C(C)C1C (centres undefined)
- TGI (ACHN renal): 39.8 µM
- TGI (DMS 114 small cell lung): 58.5 µM
- TGI (OVCAR-3 ovarian): 30.1 µM
- TGI (SF-539 CNS): 31.4 µM
- TGI (A549 NSCLC): 34.8 µM
- TGI (SK-MEL-2 melanoma): 36 µM
- TGI (SF-295 CNS): 42.3 µM
- TGI (OVCAR-4 ovarian): 30.9 µM
- TGI (TK-10 renal): 76 µM
- TGI (KM12 colon): 34.6 µM
- TGI (CCRF-CEM leukemia): 57.4 µM
- TGI (DMS 273 small cell lung): 30.4 µM
- TGI (KM20L2 colon): 31.8 µM
- TGI (SNB-75 CNS): 34.4 µM
- TGI (UACC-257 melanoma): 32.3 µM
- TGI (SK-MEL-28 melanoma): 33.7 µM
- TGI (HCT-15 colon): 32.1 µM
- TGI (OVCAR-8 ovarian): 13.4 µM
- TGI (A498 renal): 34.4 µM
- TGI (MALME-3M melanoma): 33.2 µM
- TGI (SNB-19 CNS): 34.5 µM
- TGI (SR leukemia): 41.2 µM
- TGI (UO-31 renal): 35.8 µM
- TGI (IGROV1 ovarian): 33.9 µM
- TGI (CAKI-1 renal): 33.9 µM
- TGI (MOLT-4 leukemia): 42 µM
- TGI (SK-MEL-5 melanoma): 26.9 µM
- TGI (M14 melanoma): 30.7 µM
- TGI (NCI-H522 lung): 26.6 µM
- TGI (HCT-116 colon): 32.6 µM
- TGI (LOX IMVI melanoma): 28.2 µM
- TGI (NCI-H460 lung): 33.2 µM
- TGI (SN12C renal): 32.8 µM
- TGI (XF 498 CNS): 37.9 µM
- TGI (LXFL 529 NSCLC): 57.1 µM
- TGI (DLD-1 colon): 34.5 µM
- TGI (EKVX NSCLC): 31.2 µM
- TGI (UACC-62 melanoma): 22.7 µM
- TGI (SNB-78 CNS): 62.4 µM
- TGI (SW-620 colon): 33.6 µM
- TGI (NCI-H226 lung): 25.3 µM
- TGI (OVCAR-5 ovarian): 32.2 µM
- TGI (SK-OV-3 ovarian): 45.3 µM
- TGI (HOP-92 NSCLC): 32 µM
- TGI (786-0 renal): 28.2 µM
- TGI (COLO 205 colon): 32.6 µM
- TGI (NCI-H23 lung): 27.3 µM
- TGI (K-562 leukemia): > 100 µM
- TGI (U251 CNS): 35.1 µM
- TGI (SF-268 CNS): 47.5 µM

SMILES: COc1cc(/C=C2/C(=O)N(C(=O)c3ccccc3O)N=C2C)cc(OC)c1OC
- TGI (ACHN renal): > 100 µM
- TGI (DMS 114 small cell lung): 21.7 µM
- TGI (MCF7 breast): 34.9 µM
- TGI (OVCAR-3 ovarian): 18.7 µM
- TGI (SF-539 CNS): 6.39 µM
- TGI (A549 NSCLC): > 100 µM
- TGI (HCC-2998 colon): > 87.8 µM
- TGI (SK-MEL-2 melanoma): > 29.4 µM
- TGI (SF-295 CNS): > 100 µM
- TGI (OVCAR-4 ovarian): > 100 µM
- TGI (TK-10 renal): > 100 µM
- TGI (NCI/ADR-RES ovarian): > 100 µM
- TGI (KM12 colon): > 100 µM
- TGI (CCRF-CEM leukemia): > 100 µM
- TGI (MDA-MB-231 breast): > 100 µM
- TGI (KM20L2 colon): > 100 µM
- TGI (PC-3 prostate): > 100 µM
- TGI (SNB-75 CNS): > 100 µM
- TGI (UACC-257 melanoma): > 100 µM
- TGI (SK-MEL-28 melanoma): > 100 µM
- TGI (HCT-15 colon): > 100 µM
- TGI (RPMI-8226 leukemia): > 100 µM
- TGI (MDA-MB-435): > 100 µM
- TGI (OVCAR-8 ovarian): > 100 µM
- TGI (A498 renal): 0.7 µM
- TGI (MALME-3M melanoma): > 100 µM
- TGI (SNB-19 CNS): > 100 µM
- TGI (HT29 colon): > 100 µM
- TGI (HL-60(TB) leukemia): > 60.3 µM
- TGI (DU-145 prostate): > 100 µM
- TGI (UO-31 renal): 6.81 µM
- TGI (IGROV1 ovarian): 4.71 µM
- TGI (BT-549 breast): > 100 µM
- TGI (CAKI-1 renal): > 25.8 µM
- TGI (MOLT-4 leukemia): > 100 µM
- TGI (SK-MEL-5 melanoma): 33.6 µM
- TGI (M14 melanoma): > 100 µM
- TGI (RXF 393 renal): 8.74 µM
- TGI (NCI-H522 lung): 33.4 µM
- TGI (HCT-116 colon): > 29 µM
- TGI (LOX IMVI melanoma): > 100 µM
- TGI (NCI-H460 lung): > 100 µM
- TGI (SN12C renal): > 91.2 µM
- TGI (XF 498 CNS): > 100 µM
- TGI (LXFL 529 NSCLC): > 100 µM
- TGI (DLD-1 colon): > 100 µM
- TGI (EKVX NSCLC): > 100 µM
- TGI (UACC-62 melanoma): 16.9 µM
- TGI (SNB-78 CNS): > 100 µM
- TGI (HS 578T breast): > 100 µM
- TGI (SW-620 colon): > 100 µM
- TGI (NCI-H226 lung): > 100 µM
- TGI (OVCAR-5 ovarian): > 100 µM
- TGI (SK-OV-3 ovarian): > 100 µM
- TGI (HOP-92 NSCLC): > 83.9 µM
- TGI (786-0 renal): > 100 µM
- TGI (MDA-N): > 100 µM
- TGI (COLO 205 colon): > 100 µM
- TGI (T-47D breast): > 100 µM
- TGI (NCI-H23 lung): > 21.8 µM
- TGI (K-562 leukemia): > 100 µM
- TGI (M19-MEL melanoma): > 100 µM
- TGI (U251 CNS): > 100 µM
- TGI (SF-268 CNS): > 100 µM
